32 compounds from US8980886B2, “Anthranilic acid derivatives” (Bayer Cropscience AG, priority 2010, dated 2015) can be followed below.

The nature of data set [1]: logP by HPLC on reversed-phase columns (C 18), EEC Directive 79/831 Annex V.A8. Type of data set: physicochemical. The conditions noted are these: reversed-phase C 18, acidic range pH 2.7; for chromatographic logP: reversed-phase HPLC column (C 18), pH 2.7, HPLC. The procedure:
The logP values reported in the table above and in the Preparation Examples were determined in accordance with EEC Directive 79/831 Annex V.A8 by HPLC (High Performance Liquid Chromatography) on reversed-phase columns (C 18), with the following methods: The LC-MS determination in the acidic range is carried out at pH 2.7 using the mobile phases 0.1% aqueous formic acid and acetonitrile (contains 0.1% formic acid), linear gradient from 10% acetonitrile to 95% acetonitrile Calibration was carried out using unbranched alkan-2-ones (having from 3 to 16 carbon atoms) with known logP values (the logP values were determined by the retention times using linear interpolation between two successive alkanones).

A further data set has as its system Spodoptera frugiperda. Briefly: Spodoptera frugiperda test (SPODFR spray treatment). Type of data set: in vivo. The conditions noted are these: foliar, 168 h, sprayed maize leaf discs, after 7 days, read-out: effect in % (caterpillars killed). The procedure:
Solvents: 78.0 parts by weight of acetone 1.5 parts by weight of dimethylformamide Emulsifier: 0.5 part by weight of alkylaryl polyglycol ether To produce a suitable preparation of active compound, 1 part by weight of active compound is mixed with the stated amount of solvents and emulsifier, and the concentrate is diluted with emulsifier-containing water to the desired concentration. Discs of maize leaves (Zea mays) are sprayed with an active compound preparation of the desired concentration and, after drying, populated with caterpillars of the armyworm (Spodoptera frugiperda). After 7 days, the effect in % is determined 100% means that all caterpillars have been killed; 0% means that none of the caterpillars have been killed.

Where [2] appears, read: table of compounds, read-out: log P.

Like-named read-outs stand apart in the source and are kept apart here.

As to `Cc1cc(Cl)cc2c(=O)oc(-c3cnc(Cn4nnc(C(F)(F)F)n4)nc3-c3ccccc3Cl)nc12` [6-chloro-2-[4-(2-chlorophenyl)-2-{[5-(trifluoromethyl)-2H-tetrazol-2-yl]methyl}pyrimidin-5-yl]-8-methyl-4H-3,1-benzoxazin-4-one], the chromatographic logP in data set [1] (Preparation Examples) was 5.16.

As for `CNC(=O)c1cc(Br)cc(C)c1NC(=O)c1nc(Cn2nnc(C(F)(F)F)n2)sc1-c1ccccc1Cl` [Compound 1], the chromatographic logP in data set [1] (setting [2]) turned out to be 3.98.

Take `Cc1cc(Cl)cc(C(=O)NC(C)C)c1NC(=O)c1nc(Cn2nnc(C(F)(F)F)n2)sc1-c1ccccc1Cl` [Compound 2]: in data set [1] (setting [2]), the chromatographic logP was 4.34.

As for `CNC(=O)c1cc(Cl)cc(C)c1NC(=O)c1cn(Cc2ccc(C(F)(F)F)nc2)nc1-c1ccccc1Cl` [Compound 4], the chromatographic logP in data set [1] (setting [2]) was 3.12.

`Cc1cc(Br)cc(C(=O)NC(C)C)c1NC(=O)c1nc(Cn2nnc(C(F)(F)F)n2)sc1-c1ccccc1Cl` [Compound 5]: in data set [1] (setting [2]), the chromatographic logP worked out at 4.48.

On to `CNC(=O)c1cc(C#N)cc(C)c1NC(=O)c1nc(Cn2nnc(C(F)(F)F)n2)oc1-c1ccccc1Cl` [Compound 6], for which, in data set [1] (setting [2]), the chromatographic logP stood at 3.25.

`Cc1cc(C#N)cc(C(=O)NC(C)(C)C)c1NC(=O)c1nc(Cn2nnc(C(F)(F)F)n2)oc1-c1ccccc1Cl` [Compound 7]: in data set [1] (setting [2]), the chromatographic logP is 3.95.

Turning to `CNC(=O)c1cc(C#N)cc(C)c1NC(=O)c1sc(Cn2nnc(C(F)(F)F)n2)nc1-c1ccccc1Cl` [Compound 14], the chromatographic logP in data set [1] (setting [2]) stood at 3.19. Besides, the pest or weed control at 100 g/ha with Spodoptera frugiperda turned out to be 100%.

Consider `Cc1cc(C#N)cc(C(=O)NC(C)C)c1NC(=O)c1nc(Cn2nnc(C(F)(F)F)n2)oc1-c1ccccc1Cl` [Compound 15], for which the chromatographic logP in data set [1] (setting [2]) was determined as 3.69.

Regarding `CNC(=O)c1cc(Cl)cc(C)c1NC(=O)c1nc(Cn2nnc(C(F)(F)F)n2)oc1-c1ccccc1Cl` [Compound 16], the chromatographic logP in data set [1] (setting [2]) came out at 3.65.

For `Cc1cc(Cl)cc(C(=O)NC(C)(C)C)c1NC(=O)c1nc(Cn2nnc(C(F)(F)F)n2)oc1-c1ccccc1Cl` [Compound 18], in data set [1] (setting [2]), the chromatographic logP was 4.46.

Take `Cc1cc(Cl)cc(C(=O)NC(C)C)c1NC(=O)c1nc(Cn2nnc(C(F)(F)F)n2)oc1-c1ccccc1Cl` [Compound 19]: the chromatographic logP in data set [1] (setting [2]) stood at 4.11.

Turning to `Cc1cc(Cl)cc(C(N)=O)c1NC(=O)c1nc(Cn2nnc(C(F)(F)F)n2)oc1-c1ccccc1Cl` [Compound 20], in data set [1] (setting [2]), the chromatographic logP came to 3.45.

On to `CNC(=O)c1cc(Br)cc(C)c1NC(=O)c1nc(Cn2nnc(C(F)(F)F)n2)oc1-c1ccccc1Cl` [Compound 21], for which, in data set [1] (setting [2]), the chromatographic logP is 3.72.

Consider `Cc1cc(Br)cc(C(=O)NC(C)(C)C)c1NC(=O)c1nc(Cn2nnc(C(F)(F)F)n2)oc1-c1ccccc1Cl` [Compound 22], for which, in data set [1] (setting [2]), the chromatographic logP stood at 4.52.

`Cc1cc(Br)cc(C(=O)NC(C)C)c1NC(=O)c1nc(Cn2nnc(C(F)(F)F)n2)oc1-c1ccccc1Cl` [Compound 23]: the chromatographic logP in data set [1] (setting [2]) was 4.21.

As to `CNC(=O)c1cc(C#N)cc(C)c1NC(=O)c1nc(Cn2nnc(C(F)(F)F)n2)sc1-c1ccccc1Cl` [Compound 24], in data set [1] (setting [2]), the chromatographic logP was 3.46.

Regarding `Cc1cc(C#N)cc(C(=O)NC(C)(C)C)c1NC(=O)c1nc(Cn2nnc(C(F)(F)F)n2)sc1-c1ccccc1Cl` [Compound 28], in data set [1] (setting [2]), the chromatographic logP was determined as 4.29.

With `Cc1cc(Br)cc(C(=O)NC(C)(C)C)c1NC(=O)c1nc(Cn2nnc(C(F)(F)F)n2)sc1-c1ccccc1Cl` [Compound 29], the chromatographic logP in data set [1] (setting [2]) turned out to be 4.83.

As for `CNC(=O)c1cc(C#N)cc(C)c1NC(=O)c1cn(Cc2ccc(C(F)(F)F)nc2)nc1-c1ccccc1Cl` [Compound 31], in data set [1] (HPLC, table of compounds), the log P (commonly a log measure of how a compound divides between an organic and an aqueous phase) came out at 2.83. Besides, the chromatographic logP in data set [1] (setting [2]) turned out to be 2.78. In addition, in the data set with Spodoptera frugiperda, the pest or weed control at 100 g/ha stood at 100%.

For the compound `CNC(=O)c1cc(C#N)cc(C)c1NC(=O)c1cc(C(=O)Cn2nnc(C(F)(F)F)n2)cn1-c1ncccc1Cl` [Compound 33], the chromatographic logP in data set [1] (setting [2]) was found to be 2.75.

For the compound `O=C(O)c1cnc(Cn2nnc(C(F)(F)F)n2)nc1-c1ccccc1Cl` [Example No. (IV-1), 4-(2-chlorophenyl)-2-[5-(trifluoromethyl)-2H-tetrazol-2-yl]methylpyrimidine-5-carboxylic acid], the chromatographic logP in data set [1] (Preparation Examples) worked out at 2.5.

`CCOC(=O)c1cnc(CBr)nc1-c1ccccc1Cl` [Example No. (IX), ethyl 2-(bromomethyl)-4-(2-chlorophenyl)pyrimidine-5-carboxylate] registered a chromatographic logP in data set [1] (Preparation Examples) of 3.32.

In data set [1] (Preparation Examples), `CCOC(=O)c1cnc(Cn2nnc(C(F)(F)F)n2)nc1-c1ccccc1Cl` [Example No. (X), ethyl 4-(2-chlorophenyl)-2-[5-(trifluoromethyl)-2H-tetrazol-2-yl]methylpyrimidine-5-carboxylate] displayed a chromatographic logP of 3.56.

In data set [1] (Preparation Examples), `O=C(Cn1nnc(C(F)(F)F)n1)c1cc(C(=O)O)n(-c2ncccc2Cl)c1` [Example No. IV-3, 1-(3-chloropyridin-2-yl)-4-{[5-(trifluoromethyl)-2H-tetrazol-2-yl]acetyl}-1H-pyrrole-2-carboxylic acid] came in with a chromatographic logP of 2.24.

For the compound `O=C(O)c1sc(Cn2nnc(C(F)(F)F)n2)nc1-c1ccccc1Cl` [Example No. X (IV-2), 4-(2-chlorophenyl)-2-{[5-(trifluoromethyl)-2H-tetrazol-2-yl]methyl}-1,3-thiazole-5-carboxylic acid], the chromatographic logP in data set [1] (Preparation Examples) came to 2.63.

The compound `COC(=O)c1sc(CBr)nc1-c1ccccc1Cl` [Example No. XII, methyl 2-(bromomethyl)-4-(2-chlorophenyl)-1,3-thiazole-5-carboxylate] gave a chromatographic logP in data set [1] (Preparation Examples) of 4.12.

Consider `COC(=O)c1sc(Cn2nnc(C(F)(F)F)n2)nc1-c1ccccc1Cl` [Example No. XIII, methyl 4-(2-chlorophenyl)-2-{[5-(trifluoromethyl)-2H-tetrazol-2-yl]methyl}-1,3-thiazole-5-carboxylate], for which, in data set [1] (Preparation Examples), the chromatographic logP turned out to be 3.6.

For `COC(=O)c1cc(C(C)=O)cn1-c1ncccc1Cl` [Example No. XV, methyl 4-acetyl-1-(3-chloropyridin-2-yl)-1H-pyrrole-2-carboxylate], the chromatographic logP in data set [1] (Preparation Examples) is 1.74.

With `COC(=O)c1cc(C(=O)CBr)cn1-c1ncccc1Cl` [Example No. XVI, methyl 4-(bromoacetyl)-1-(3-chloropyridin-2-yl)-1H-pyrrole-2-carboxylate], the chromatographic logP in data set [1] (Preparation Examples) turned out to be 2.28.

`COC(=O)c1cc(C(=O)Cn2nnc(C(F)(F)F)n2)cn1-c1ncccc1Cl` [Example No. XVII, methyl 1-(3-chloropyridin-2-yl)-4-{[5-(trifluoromethyl)-2H-tetrazol-2-yl]acetyl}-1H-pyrrole-2-carboxylate] had a chromatographic logP in data set [1] (Preparation Examples) of 2.97.

`CNC(=O)c1cc(Cl)cc(C)c1NC(=O)c1cnc(Cn2nnc(C(F)(F)F)n2)nc1-c1ccccc1Cl` [N-[4-chloro-2-methyl-6-(methylcarbamoyl)phenyl]-4-(2-chlorophenyl)-2-{[5-(trifluoromethyl)-2H-tetrazol-2-yl]methyl}pyrimidine-5-carboxamide] registered a chromatographic logP in data set [1] (Preparation Examples) of 3.13.
